Measured values reported in patent publication US12661355B2, “Compounds and methods for inducing UCP1 expression” (The Regents of the University of California, priority 2020, dated 2026).

Assays:
AKAP1mut cells = test: Gene expression in AKAP1mut and AKAP1wt brown adipocyte cell lines; format: cell-based, mouse; settings: 10 μM
Experimental: RNA levels were measured by qPCR according to known methods. Briefly, RNA was extracted with TRIzol (Invitrogen) and reverse transcribed with iScript (Bio-Rad). Real-time PCR analysis was performed with a CFX Connect (Bio-Rad).
Two gRNAs were selected using sgRNA Designer from the Broad Institute (gRNA1: […] (SEQ ID NO: 46) and gRNA2: […] (SEQ ID NO: 47)). Cloning was performed using pSpCas9 (BB)-2A-puro (PX459) V2.0 vector (Addgene plasmid #62988). Plasmid construction was confirmed by sequencing. A puromycin-sensitive brown adipocyte cell line was transfected with the two plasmids and selected with […] puromycin. Single-cell cloning was performed in a 96-well plate and clones selected by Western blot to detect AKAP1 protein knockdown, and confirmed by sequencing after PCR amplification (PCR primers: […] (SEQ ID NO: 48) and […] (SEQ ID NO: 49)).
To further assess the requirement of AKAP1 to mediate the effects of Z160, AKAP1 was inactivated in an immortalized brown adipocyte cell line (AKAP1wt) using CRISPR/Cas9 gene editing. One clone (AKAP1mut) was selected based on very low AKAP1 protein levels (FIG. 10A).

[1] = tested on: human brown adipocyte cell line; test: Cellular respiration in human brown adipocytes; format: cell-based; settings: 10 μM for 4 days
Experimental: Human immortalized brown and white preadipocytes were obtained from Dr. Yu-Hua Tseng (Joslin Diabetes Center, Harvard Medical School, USA). The generation of the two cell lines from human neck adipose tissue biopsies and immortalization was performed as previously described but from a different donor. Cells were cultured in high glucose DMEM supplemented with 10% FBS and antibiotics. Two days after reaching confluence, cells were treated with 30 μM biotin, 500 nM insulin, 17 μM pantothenate, 100 nM dexamethasone, 2 nM 3,3′,5-Triiodo-L-thyronine, 500 μM IBMX, 30 μM indomethacin and 1 μM rosiglitazone, for 12 days. […]
Cellular respiration was measured using a Seahorse XF24 or XF96 analyzer (Agilent) following known protocols Immortalized brown adipocytes were differentiated in 6-well plates and replated in the Seahorse XF24 plates at a density of 50,000 cells per well using trypsin and collagenase type II. […] Oxygen consumption rates were measured before and after the sequential injection of 1 μM oligomycin, 1 μM FCCP, and 0.5 μM rotenone/antimycin A. For these cells, results were normalized to cell count determined by nuclei fluorescent staining with Hoescht staining imaged on Cytation 5 Imaging Reader and analysis with Gen5 software (BioTek). […] Maximal respiration was determined after FCCP injection.

COc1ccc(NC(=O)CSc2nc3ccccc3c(=O)[nH]2)c(OC)c1 [Z160]
induced expression of Hoxa5, Cidea, Elovl3, Acox1 and Cpt1b in AKAP1mut (AKAP1mut cells; AKAP1mut vs AKAP1wt): blunted or reduced | Ucp1 expression response in AKAP1mut cells (AKAP1mut cells; AKAP1mut): did not respond | Ppargc1a expression (AKAP1mut cells; both AKAP1wt and AKAP1mut cells): increased | maximal respiration [1]: increased | mitochondrial respiration (primarily uncoupled respiration) [1]: increased
